In US20110021631A1, “Method of preparing stabilized pharmaceutical compositions comprising active ingredients susceptible to conversion to alternate polymorph forms” (LEK PHARMACEUTICALS D.D., priority 2004, published 2011):
“Also recorded” adds a separate entry of the source.

What was measured:
[1] = forms as named in WO 01/43723; cited from earlier work
[2] = Polymorph analysis by X-ray powder diffraction (XRPD) after wet granulation / mixing of pravastatin sodium form LEK; assay type: physicochemical
Method: References to 2Θ values are to those measured using CuKα radiation. Samples are measured on apparatus Siemens D-5000 by reflex technique at two conditions: • a. Samples with high amount of pravastatin sodium (more than 30%): CuKα radiation, range from 2° to 37° 2Θ, step 0.04° 2Θ, integration time 1 second, slots V20 and 0.6 mm. • b. Samples with low amount of pravastatin sodium (less than 30%): CuKα radiation, range from 3° to 12° 2Θ, step 0.04° 2Θ, integration time 15 second, slots V20 and 0.6 mm.

Compound | polymorph conversion by treating with alcohol [1] | conversion on granulation with granulating liquid comprising a binder (PVP) ([2]; PVP in ethanol, in some experiments) | conversion to another polymorph form on granulation with alcohol alone ([2]; alcohol (absolute ethanol or aqueous ethanol) as granulating liquid, absence of other ingredients) | precrystallization of dry mixture ([2]; dry mixture of pravastatin sodium and microcrystalline cellulose, 2 hours at 60° C.) | stability of Lek form in wet granulation ([2]; mass ratio pravastatin sodium to microcrystalline cellulose higher or equal to 1:1 and pravastatin sodium to ethanol higher or equal to 1:1, preferably 1:0.5) | precrystallization in wet granulation ([2]; pravastatin sodium:microcrystalline cellulose = 1:0.5, pravastatin sodium and ethanol 1:0.4) | polymorph form in the presence of a high amount of microcrystalline cellulose and granulating liquid ([2]; wet granulation with ethanol)
CC[C@H](C)C(=O)O[C@H]1C[C@H](O)C=C2C=C[C@H](C)[C@H](CC[C@@H](O)C[C@@H](O)CC(=O)O)[C@H]21 [pravastatin sodium form D, pravastatin sodium] | convert to forms A, H, H1, I, J, K |  |  |  |  |  | 
CC[C@H](C)C(=O)O[C@H]1C[C@H](O)C=C2C=C[C@H](C)[C@H](CC[C@@H](O)C[C@@H](O)CC(=O)O)[C@H]21 [pravastatin sodium] |  | partial conversion | does not convert to any other polymorph form; also recorded: does not cause the precrystallization | does not cause any precrystallization | stable | no precrystallization occurs | precrystallizes to form D
